In a melting point compilation (Tetko et al.; mined from patent text by program, amines drawn as free bases though some values may be those of a salt) one finds melting point data, which are given here for 87 compounds.

Non-standard residues stand in square brackets, D forms with d. Residues, ends and D or L forms follow the SMILES beside them. *: point of attachment. Tic = O=C(O)[C@@H]1Cc2ccccc2CN1; Abu = CC[C@H](N)C(=O)O; NHBu = CCCCN*

As usually defined, the melting point is the temperature of the solid-liquid transition.

The compound `O=c1ccc(S(=O)(=O)c2cc3ccccc3s2)n[nH]1` had a melting point of 209 to 210 °C. For the compound `O=c1nc(-c2c(F)cccc2F)oc(=O)n1-c1ccc(Cl)c(Cl)c1`, the melting point was in the range of 196 to 197 °C.

`CC(=O)Nc1ccc(S(=O)(=O)NCCCn2ccnc2)cc1` had a melting point of 178 to 180 °C. Consider `CCN(CC)CCN1C(=O)c2cc(OC)c3[nH]c4ccc(O)cc4c3c2C1=O`, for which the melting point fell in the range of 226 to 228 °C. The result for `CCOP(=O)(O)Cc1nnc2c(=O)[nH]c3cc(C(F)(F)F)ccc3n12` reads 276 to 280 °C. In turn, `Cc1cc(C)c2c(c1)[C@H]1CN(C)CC[C@@H]1CC2=O` (relative stereo) showed a melting point of more than 250 °C. As for `CC1NC2(c3ccccc3)c3ccccc3C(=O)N2C1C` (configuration not stated), the figure is 162 to 164 °C; as for `CN1CCC(N(CCN2CCCC2)C(=O)c2ccc(Nc3nccc(Nc4ccc(C(F)(F)F)cc4)n3)cc2)CC1`, 115 to 120 °C. As for `Cc1cc(-c2nc3cccnn3c2-c2ccnc(NC(N)=O)c2)ccc1F`, the figure is 254 to 255 °C; as for `COc1cccc2c1CC(COS(=O)(=O)c1ccc(C)cc1)CC2` (configuration not stated), 53 to 58 °C; as for `O=C1C(CCO)Oc2cc([N+](=O)[O-])ccc2N1Cc1cccc([N+](=O)[O-])c1` (configuration not stated), 157 to 160 °C.

`NS(=O)(=O)c1cc2c(cc1Cl)C(=O)N(CCc1ccccn1)C2=O`: the melting point fell in the range of 240 to 241 °C. As for `COCCO[C@@H]1c2ccn3c(Cl)c(C)nc3c2N(C(C)=O)[C@H](c2ccccc2)[C@H]1OC(=O)C(C)(C)C`, the figure is 145 to 147 °C; as for `COc1ccc(-c2ccc(OC3SCC(O)C(O)C3O)cn2)cn1` (configuration not stated), 167 °C; as for `O=[N+]([O-])c1ccc(C(Cl)(Cl)Br)cc1`, 51.3 to 52.9 °C. Take `O=C(O)c1ccc2c(c1)Sc1ccccc1CC2O` (configuration not stated): the melting point fell in the range of 202 to 204 °C.

Turning to `O=C(O)c1cc(S)cc(C(=O)O)c1`, the melting point is 240 to 246 °C. As for `O=C(Cc1ncc[nH]1)c1ccc2ccccc2c1`, the figure is 125 to 126 °C. Consider `O=C(O)C(Oc1ccccc1)c1ccc(Oc2ccc(Cl)cc2)cc1` (configuration not stated), for which the melting point was 114 to 116 °C. As for `N#CNC(=O)[C@H](Cc1ccccc1)NC(=O)[C@@H]1CCC(=O)N1`, the figure is 163 to 165 °C; as for `O[C@H](COc1cccc2[nH]ccc12)CN1CC=C(c2c[nH]c3cc(F)ccc23)CC1`, 95 to 100 °C; as for `COc1ccc(CCc2ccc(-n3c(C)nc4cnccc43)cc2)cc1OC1CCCC1`, 123 to 125 °C. The result for `CCOC(=O)c1cc(C(=O)NC)nc(C(=O)NC)c1` reads 183 to 184 °C; that for `O=C(O)CCCCCCc1nc2ccccc2s1`, 62 to 63 °C. As for `FC(F)(F)c1nc(Cl)c(Cl)[nH]1`, the figure is 186 to 188 °C; as for `O=C(NCCc1ccn(-c2cc3nc(C(=O)O)c(=O)[nH]c3cc2F)c1)Nc1ccc(C(=O)O)cc1`, more than 300 °C. On to `CCn1cnc2c(Nc3cccc(C(F)(F)F)c3)nc(NCCCO)nc21`, for which the melting point was in the range of 136 to 137 °C.

With `Cc1noc(-c2c(C)ncn2C)n1`, the melting point worked out at 95 °C. As for `c1ccc(Cn2nnc3ccc(Cn4ccnc4)cc32)cc1`, the figure is 85.4 °C; as for `COCCOc1ccc(/C=C/C(=O)O)c(Oc2ncc(NC(=O)OC(C)(C)C)cc2C)c1`, 159 to 160 °C. Compound `CCOC(=O)C1=C(C)Nc2snc(CCCOCc3ccccc3)c2C1c1cccc([N+](=O)[O-])c1` (configuration not stated) returned a melting point of 109 to 110 °C. The result for `CCC(CC)c1ccc(Cl)c2nc3n(c12)CCN3c1ccc(Cl)cc1C(N)=O` reads more than 300 °C; that for `CC1(C)OC(c2ccc(S(C)(=O)=O)c(Cl)c2)=C(c2ccccc2)C1=O`, 174 to 175 °C; that for `CC(C)(C)CNS(=O)(=O)c1cccc(NC(=O)c2cnn3c(C(F)F)cc(-c4ccc(C(F)(F)F)cc4)nc23)c1`, 208 °C. As to `CC1(C)Oc2ccc(C(=O)CO)cc2[C@H](NC(=O)c2cc(F)cc(F)c2)[C@H]1O`, the melting point worked out at 179 °C. On to `O=C(NC(=Cc1ccccc1)c1cccs1)C(F)(F)F`, for which the melting point was 158 °C. As for `CCOC(=O)c1cc2c(C)ccc3c2n1CCC3=O`, the figure is 103 to 104 °C; as for `CCCc1c2oc(C(=O)O)cc(=O)c2cc2c(=O)cc(N(C(C)=O)C(C)=O)oc12`, 267 °C; as for `C[C@H]1C(=O)Nc2ccc(Cl)cc2N1C(=O)Oc1ccc(F)cc1`, 168 to 170 °C. As for `CCCCCN1C(=O)C(CCC(=O)OCC)(NC(=O)c2ccc3ccccc3c2)c2ccc(OC)cc21` (configuration not stated), the figure is 156 to 159 °C; as for `O=C(NO)C1(S(=O)(=O)c2ccc(Oc3ccc(Cl)cc3)cc2)CCN(Cc2ccccc2)CC1`, 90.4 °C.

For the compound `N=C(N)c1c[nH]c2ccc(CCNC(=O)c3ccc(-c4ccnc(N5CCCC5C(N)=O)n4)cc3)cc12` (configuration not stated), the melting point lay in the range of 139 to 141 °C. The result for `CCCCCS(=O)(=O)NC(=O)CCc1ccc(OCCOC)cc1Oc1ncc(C(F)(F)F)cc1Cl` reads 140 to 142 °C.

With `O=S1CCc2n[nH]c(CCCN3CCN(c4ccc(F)cc4)CC3)c2C1` (configuration not stated), the melting point lay in the range of 140 to 142 °C. As for `Sc1nccn1Cc1ccccc1Cl`, the figure is 206 to 207 °C; as for `C=CCNc1nc(NCCCCCCCCC)c2scc(C)c2n1`, 65 to 66 °C; as for `c1n[nH]nc1C12CCCN(CC1)C2` (configuration not stated), 70 to 75 °C. The result for `COc1ccc(Cn2nc(COC(C)(C)C(=O)O)c3ccccc32)cc1` reads 169 to 171 °C; that for `CCOC(=O)CON(C(=S)Nc1cc(Cl)ccc1C)C(C)C`, 83 to 85 °C; that for `CCOP(=O)(OCC)c1ccc(CNC(=O)C2=Cc3cc(C4CCCCC4)ccc3CC2)cc1`, 169 to 170 °C. The result for `CC(C)(C)OC(=O)N1CCCC(c2ccc3c(c2)C2(CO3)C(=O)Nc3ccccc32)C1` (configuration not stated) reads 120 to 123 °C; that for `Cc1c(-c2ccc(F)cc2)oc2c(-c3ccc(S(C)(=O)=O)cc3)c(-c3ccc(F)cc3)nn12`, 289 to 291 °C; that for `COc1ccc(Nc2c(C#N)cnc3cc(OC)c(OC)cc23)cc1OC`, 230 to 240 °C.

In turn, `COc1ccc(-c2c(SCc3ccccc3)oc3cc(OCc4ccccc4)ccc3c2=O)cc1` showed a melting point of 131 °C. Consider `Clc1cc2nc(NCCCN3CCOCC3)c(-c3ccccn3)nc2cc1Cl`, for which the melting point lay in the range of 119 to 121 °C. As for `CCCc1nn(-c2ccc(C(F)(F)F)cn2)cc1CCCOc1ccccc1CCC(=O)O`, the figure is 87 to 88 °C; as for `CN(C)CCCOc1ccc2c(c1)SCC(=O)N2`, 120 to 121 °C; as for `CCCCCCCCCCCCCCCCCCOc1cc(N)cc(OCCCP(=O)(OCC)OCC)c1`, 63 to 65 °C. The result for `COc1ccc(-c2nnsc2-c2ccccc2)cc1` reads 81.5 to 82.5 °C. In turn, `C=C(CCC(C)C1CCC2C3=C(C(=O)CC21C)C1(C)CCC(=O)C(C)C1CC3O)C(C)C(=O)OC` (configuration not stated) registered a melting point of 100 to 101 °C. The result for `CC(C=O)=Cc1cc([N+](=O)[O-])ccc1Cl` reads 99 to 102 °C; that for `CC(C)(C)C(O)C(Cn1cncn1)Oc1ccc(Cl)cc1` (configuration not stated), 103 °C; that for `CNC1CCN(c2c(F)cc3c(=O)c(C(=O)O)cn(C4CC4)c3c2OC)CC1(C)C` (configuration not stated), 246 to 248 °C. With `COc1ccc(CN(C)CCc2ccc(NC(=O)c3cccc4c(=O)c5cccc(C)c5[nH]c34)c(C)c2)cc1OC`, the melting point is 160 to 161 °C. In turn, `Cc1cn(Cc2ccccc2)c(=O)n(CC2(CO)CC2)c1=O` showed a melting point of 81.5 °C. Compound `O=C(NCc1ccc(C(=O)O)c(OCc2ccccc2)c1)OCc1ccccc1` gave a melting point of 139 to 140 °C. The result for `NC(=O)[C@H]1CN(c2ccc(C3=NNC(=O)CS3)c(F)c2)C(=O)O1` reads 249 to 251 °C; that for `CN1CCCC1COc1ccc(-c2cccc(N)n2)c2ccccc12` (configuration not stated), 80 to 95 °C.

The compound `OCc1cc2cc(-c3ccsc3)ccc2o1` showed a melting point of 122 to 124 °C. As for `O=C(CC1=C(n2nc(-c3c(-c4ccccc4)nn4ccccc34)ccc2=O)CCCC1)N1CCNCC1`, the figure is 208 to 209 °C; as for `O=C(Nc1ccccc1-c1ccc(Cl)cc1F)c1cccnc1Cl`, 124 to 126 °C; as for `CCOC(=O)C1=C(N)NC(N)=C(C(=O)OCC)C1c1cccc2ccccc12`, 162 to 163 °C.

The compound `COC(=O)c1cccc([N+](=O)[O-])c1CS(=O)(=O)NC(=O)Nc1nc(OC)cc(OC)n1` showed a melting point of 177 to 181 °C. The result for `CNN1C(=O)CSC1=Cc1cc(C(C)(C)C)c(O)c(C(C)(C)C)c1` reads 151 to 154 °C. The result for `CCCc1c(O)ccc2oc(Cc3ccc(F)cc3)c(C)c12` reads 121 to 123 °C; that for `COCc1ccc(OCC(=O)O)c(NC(=O)c2ccc(OCCCCc3ccccc3)cc2)c1`, 126 to 129 °C; that for `COCc1nccc(=O)[nH]1`, 125 to 127 °C. The result for `N#Cc1cnn2c(C(F)(F)F)cc(-c3ccccc3F)nc12` reads 165 °C.

Regarding `CCOC(=O)C=Cc1ccc(OCc2csc(-c3ccccc3)n2)c(OC)c1`, the melting point was 92 to 93 °C. The result for `Cc1cc(S(=O)(=O)NCc2ccccc2)c2c(C)ccc(C(C)C)cc1-2` reads 124 to 126 °C. On to `Cc1nnc(-c2ccc3occ(-c4ccc(OS(=O)(=O)C(F)(F)F)cc4)c3c2)o1`, for which the melting point was 136 to 137 °C. As for `N#Cc1cc(/C=C/C(=O)Nc2ccc(Br)cc2)ccc1F`, the figure is 205 to 210 °C; as for `COC(=O)c1sccc1NC(=O)CC#N`, 146 °C. The result for `COCCOc1ccc(CC(C)CO)c(Oc2ncc(C(F)(F)F)cc2Cl)c1` (configuration not stated) reads 84 to 86 °C. The result for `CCCCNC(=O)[C@@H]1Cc2ccccc2CN1C(=O)[C@@H](N)CC` (H-[Abu]-[Tic]-NHBu) reads 105 to 110 °C. In the case of `Cc1ccc(S(=O)(=O)NCCN(C(=O)c2ccccc2C(=O)c2ccccc2)C(C)C)cc1`, the melting point lay in the range of 135 to 137 °C.

In turn, `CN1Cc2c(-c3nc(CN4Cc5ccccc5C4)no3)ncn2-c2ccccc2C1=O` displayed a melting point of 155 to 160 °C.
